# Experimental data published in patent US8841453B2, “Hybrid cholinesterase inhibitors” (priority 2011, dated 2014).
# How the values were obtained:
# BChE from the plasma = BChE from the plasma (Homo sapiens (Human), UniProt P06276); test: Ellman's method, butyrylcholinesterase inhibition; assay type: biochemical; details: for Selectivity IC50(AChE)/IC50(BChE): ratio of IC50 for AChE to IC50 for BChE; for IC50: human plasma BChE, Ellman's method, phosphate buffer pH 8.0 as reference
# Experimental: (§1) The biological activity of the compounds of general formula (I) towards the cholinesterase inhibition was evaluated using Ellman's method (Ellman, G. L.; Courtney, K. D.; Anders, B.; Featherstone, R. M. Biochem. Pharmacol. 1961, 7, 88-95).
# (§2) The inhibitor causes the enzyme activity drop which is dependent on the inhibitor concentration. […] The amount of the hydrolyzed ASCh/BSCh is measured indirectly, by quantification of the product of its reaction with DTNB (5,5′-dithio-bis-2-nitrobenzoic acid). Ellman's method relies therefore on the spectrophotometric quantification of product of the reaction between acylthiocholine and DTNB. IC50 value corresponds to the inhibitor concentration which causes the 50% decrease of the enzyme activity.
# (§3) The enzymes are derived from human blood: AChE from the erythrocytes and BChE from the plasma. The phosphate buffer of pH 8.0 is used as the reference compound (lack of inhibition; enzyme activity—100%).
# [1] = target: AChE from the erythrocytes (Homo sapiens (Human), UniProt P22303); test: Ellman's method, acetylcholinesterase inhibition; assay type: biochemical; details: human erythrocyte AChE, phosphate buffer pH 8.0 as reference
# Sequence of AChE from the erythrocytes (P22303 32-574 with tags or gaps limits assumed): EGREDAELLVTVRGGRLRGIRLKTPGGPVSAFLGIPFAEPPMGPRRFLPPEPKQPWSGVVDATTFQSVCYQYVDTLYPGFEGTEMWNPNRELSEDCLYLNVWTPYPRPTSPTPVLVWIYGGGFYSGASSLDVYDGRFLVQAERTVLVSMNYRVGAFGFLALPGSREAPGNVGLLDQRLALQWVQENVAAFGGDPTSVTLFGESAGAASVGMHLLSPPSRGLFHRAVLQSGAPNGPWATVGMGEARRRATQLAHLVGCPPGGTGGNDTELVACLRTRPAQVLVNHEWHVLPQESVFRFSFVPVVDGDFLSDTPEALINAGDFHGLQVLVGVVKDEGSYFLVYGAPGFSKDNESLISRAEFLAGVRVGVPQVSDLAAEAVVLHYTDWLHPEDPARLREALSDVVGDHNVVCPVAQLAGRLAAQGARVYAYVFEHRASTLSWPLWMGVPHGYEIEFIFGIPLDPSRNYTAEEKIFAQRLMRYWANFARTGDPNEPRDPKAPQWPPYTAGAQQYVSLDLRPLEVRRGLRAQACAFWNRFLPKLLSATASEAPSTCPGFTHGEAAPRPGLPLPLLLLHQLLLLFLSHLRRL
# Experimental: as §1, §2, §3
# Sequence of BChE from the plasma (P06276 29-602): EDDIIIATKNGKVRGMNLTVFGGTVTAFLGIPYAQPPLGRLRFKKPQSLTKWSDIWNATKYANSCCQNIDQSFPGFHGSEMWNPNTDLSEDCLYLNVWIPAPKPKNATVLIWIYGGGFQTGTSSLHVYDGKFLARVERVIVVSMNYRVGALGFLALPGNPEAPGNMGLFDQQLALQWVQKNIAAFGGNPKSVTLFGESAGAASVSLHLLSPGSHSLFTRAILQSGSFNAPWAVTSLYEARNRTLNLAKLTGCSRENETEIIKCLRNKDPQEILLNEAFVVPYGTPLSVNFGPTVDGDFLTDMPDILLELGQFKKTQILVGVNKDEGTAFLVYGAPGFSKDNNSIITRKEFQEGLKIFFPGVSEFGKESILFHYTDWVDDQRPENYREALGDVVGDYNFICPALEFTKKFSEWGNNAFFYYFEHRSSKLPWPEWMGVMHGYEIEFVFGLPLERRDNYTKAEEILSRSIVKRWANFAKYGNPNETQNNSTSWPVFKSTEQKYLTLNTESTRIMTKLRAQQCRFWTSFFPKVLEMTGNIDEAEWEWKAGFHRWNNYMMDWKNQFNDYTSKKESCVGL
Compound,Selectivity IC50(AChE)/IC50(BChE) (BChE from the plasma),IC50 [1],IC50 (BChE from the plasma)
"CC(=O)NCCc1c[nH]c2ccc(OC(=O)NCCNc3c4c(nc5ccc(Cl)cc35)CCCC4)cc12 [Example 13, 3-[2-(acetylamino)ethyl]-1H-indol-5-yl{2-[(7-chloro-1,2,3,4-tetrahydroacridin-9-yl)amino]ethyl}carbamate]",400.1,,
"CC(=O)NCCc1c[nH]c2ccc(OC(=O)NCCCCCCCNc3c4c(nc5ccc(Cl)cc35)CCCC4)cc12 [Example 12, 3-[2-(acetylamino)ethyl]-1H-indol-5-yl{7-[(7-chloro-1,2,3,4-tetrahydroacridin-9-yl)amino]heptyl}carbamate]",45.3,,
"CC(=O)NCCc1c[nH]c2ccc(OC(=O)NCCCCCCCCCCNc3c4c(nc5ccccc35)CCCC4)cc12 [Example 14, 3-[2-(acetylamino)ethyl]-1H-indol-5-yl[10-(1,2,3,4-tetrahydroacridin-9-ylamino)decyl]carbamate]",4.2,1.18 ± 0.12 nM,0.28 ± 0.04 nM
"CC(=O)NCCc1c[nH]c2ccc(OC(=O)NCCCCCNc3c4c(nc5ccccc35)CCCC4)cc12 [Example 10, 3-[2-(acetylamino)ethyl]-1H-indol-5-yl[5-(1,2,3,4-tetrahydroacridin-9-ylamino)pentyl]carbamate]",90.1,186 ± 11.2 nM,2.07 ± 0.5 nM
"CC(=O)NCCc1c[nH]c2ccc(OC(=O)NCCCCCCCCNc3c4c(nc5ccccc35)CCCC4)cc12 [Example 11, 3-[2-(acetylamino)ethyl]-1H-indol-5-yl[8-(1,2,3,4-tetrahydroacridin-9-ylamino)octyl]carbamate]",18.4,4.61 ± 0.32 nM,0.25 ± 0.03 nM
"CC(=O)NCCc1c[nH]c2ccc(OC(=O)NCCCCCCNc3c4c(nc5ccccc35)CCCC4)cc12 [Example 3, 3-[2-(acetylamino)ethyl]-1H-indol-5-yl[6-(1,2,3,4-tetrahydroacridin-9-ylamino)hexyl]carbamate]",87.4,178 ± 16.3 nM,2.04 ± 0.22 nM
"CC(=O)NCCc1c[nH]c2ccc(OC(=O)NCCCCCCCNc3c4c(nc5cc(Cl)ccc35)CCCC4)cc12 [Example 4, 3-[2-(acetylamino)ethyl]-1H-indol-5-yl{7-[(6-chloro-1,2,3,4-tetrahydroacridin-9-yl)amino]heptyl}carbamate]",20.3,,
"CC(=O)O[C@@]12CCN(C(C)=O)[C@@H]1N(C(C)=O)c1ccc(OC(=O)NCCCCCCNc3c4c(nc5ccccc35)CCCC4)cc12 (stereo in doubt) [Example 7, 1,8-diacetyl-5-({[6-(1,2,3,4-tetrahydroacridin-9-ylamino)hexyl]carbamoyl}oxy)-2,3,8,8a-tetrahydropyrrolo[2,3-b]indol-3a(1H)-yl acetate]",11.7,36.8 ± 2.87 nM,3.15 ± 0.83 nM
"CC(=O)NCCc1c[nH]c2ccc(OC(=O)NCCCCCCCCCCNc3c4c(nc5cc(Cl)ccc35)CCCC4)cc12 [Example 18, 3-[2-(acetylamino)ethyl]-1H-indol-5-yl{10-[(6-chloro-1,2,3,4-tetrahydroacridin-9-yl)amino]decyl}carbamate]",6.7,,
"CC(=O)NCCc1c[nH]c2ccc(OC(=O)NCCCNc3c4c(nc5ccccc35)CCCC4)cc12 [Example 8, 3-[2-(acetylamino)ethyl]-1H-indol-5-yl[3-(1,2,3,4-tetrahydroacridin-9-ylamino)propyl]carbamate]",4.6,270 ± 19.4 nM,58.2 ± 9.62 nM
"CC(=O)NCCc1c[nH]c2ccc(OC(=O)NCCCCCCCCCCNc3c4c(nc5ccc(Cl)cc35)CCCC4)cc12 [Example 16, 3-[2-(acetylamino)ethyl]-1H-indol-5-yl{10-[(7-chloro-1,2,3,4-tetrahydroacridin-9-yl)amino]decyl}carbamate]",0.9,1.43 ± 0.02 nM,1.64 ± 0.14 nM
"CC(=O)NCCc1c[nH]c2ccc(OC(=O)NCCNc3c4c(nc5cc(Cl)ccc35)CCCC4)cc12 [Example 5, 3-[2-(acetylamino)ethyl]-1H-indol-5-yl{2-[(6-chloro-1,2,3,4-tetrahydroacridin-9-yl)amino]ethyl}carbamate]",0.6,,
"CC(=O)NCCc1c[nH]c2ccc(OC(=O)NCCCCCCCCCCCCNc3c4c(nc5ccccc35)CCCC4)cc12 [Example 15, 3-[2-(acetylamino)ethyl]-1H-indol-5-yl[12-(1,2,3,4-tetrahydroacridin-9-ylamino)dodecyl]carbamate]",15.8,3.8 ± 0.16 nM,0.24 ± 0.08 nM
"CC(=O)NCCc1c[nH]c2ccc(OC(=O)NCCCCCCCCCCCCNc3c4c(nc5ccc(Cl)cc35)CCCC4)cc12 [Example 17, 3-[2-(acetylamino)ethyl]-1H-indol-5-yl{12-[(7-chloro-1,2,3,4-tetrahydroacridin-9-yl)amino]dodecyl}carbamate]",9,7 ± 0.72 nM,0.78 ± 0.16 nM
"CC(=O)NCCc1c[nH]c2ccc(OC(=O)NCCCCCCCCCCCCNc3c4c(nc5cc(Cl)ccc35)CCCC4)cc12 [Example 19, 3-[2-(acetylamino)ethyl]-1H-indol-5-yl{12-[(6-chloro-1,2,3,4-tetrahydroacridin-9-yl)amino]dodecyl}carbamate]",19.5,,
"CC(=O)NCCc1c[nH]c2ccc(OC(=O)NCCCCCCCNc3c4c(nc5ccccc35)CCCC4)cc12 [Example 1, 3-[2-(acetylamino)ethyl]-1H-indol-5-yl[7-(1,2,3,4-tetrahydroacridin-9-ylamino)heptyl]carbamate]",135.1,33.8 ± 2.74 nM,0.25 ± 0.02 nM
"CC(=O)NCCc1c[nH]c2ccc(OC(=O)NCCCCNc3c4c(nc5ccccc35)CCCC4)cc12 [Example 9, 3-[2-(acetylamino)ethyl]-1H-indol-5-yl[4-(1,2,3,4-tetrahydroacridin-9-ylamino)butyl]carbamate]",24.4,378 ± 42.4 nM,15.5 ± 2.84 nM
